Our source for the inhibition and melting point values is patent publication US8263610B2, “Substituted imidazolyl-5,6-dihydrobenzo[N]isoquinoline compounds” (ArQule, Inc., priority 2008, dated 2012).

A value given as a limit tells only on which side of the number the result lay.

The test system of one data set is NCI-H1299 cells. Description: MTS assay, inhibition of cell growth. The data set is classed as cell-based. As to conditions: Homo sapiens, compound at 10 μM, 72 hours. As to the method:
(§1) MDA-MB-231, DLD-1, Kato III NCI-H1299, PACA-2 cells, were maintained at 37° C., 5% CO2 in DMEM media supplemented with 10% fetal bovine serum, penicillin/streptomycin and fungizone (Invitrogen). Cells were seeded into 96-well tissue culture plates at 3000 per well and cultured at 37° C. for 18 hours. Test compounds were dissolved and diluted to 300× in DMSO then further diluted 1:40 in DMEM before addition to cells (1:7.5 dilution). Cells were incubated with test compounds for 72 hours followed by incubation with tetrazolium compound (3-(4,5-dimethylthiazol-2-yl)-5-(3-carboxymethoxyphenyl)-2-(4-sulfophenyl)-2H-tetrazolium, inner salt; MTS) and the electron coupling reagent, phenazine methosulfate (PMS) for 4 hours. […] The ability of compounds to inhibit cell growth in this assay is correlated with the reduction of dehydrogenase enzyme activity found in metabolically active cells. The measurement of the absorbance of the formazan was assessed using an ENVISION™ (Perkin Elmer) microplate reader at 492 nm.

The test system of a further data set is DLD-1 cells. The experiment in a line: MTS assay, inhibition of cell growth. The data set is classed as cell-based. As to conditions: Homo sapiens, compound at 10 μM, 72 hours. As to the method: as §1
For a further data set, the system named is MDA-MB-231 cells. The experiment in a line: MTS assay, inhibition of cell growth. The data set is classed as cell-based. As to conditions: Homo sapiens, compound at 10 μM, 72 hours. As to the method: as §1
A further data set relates to Kato III cells. The experiment in a line: MTS assay, inhibition of cell growth. Format: cell-based. To be noted: Homo sapiens, compound at 10 μM, 72 hours. As to the method: as §1
The next data set deals with PACA-2 cells. Description: MTS assay, inhibition of cell growth. The data set is classed as cell-based. To be noted: compound at 10 μM, 72 hours. How it is done: as §1

Take `O=S(=O)(Cc1noc2ccccc12)NC1CCc2c(cnc3[nH]ncc23)C1` (centres unmarked) [1-(1,2-benzisoxazol-3-yl)-N-(6,7,8,9-tetrahydro-3H-pyrazolo[3,4-c]isoquinolin-7-yl)methanesulfonamide]: the inhibition at 10 µM with NCI-H1299 cells fell in the range of 25 to 49%; with DLD-1 cells it was 50 to 74%; in the data set with MDA-MB-231 cells, 25 to 49%; with Kato III cells, 75 to 100%; with PACA-2 cells, 75 to 100%.

With `O=C(Nc1cccc2ccccc12)NC1CCc2c(cnc3[nH]ncc23)C1` (centres unmarked) [1-(1-naphthyl)-3-(6,7,8,9-tetrahydro-3H-pyrazolo[3,4-c]isoquinolin-7-yl)urea], the inhibition at 10 µM fell in the range of 25 to 49% in the data set on NCI-H1299 cells; 75 to 100% in the data set on DLD-1 cells; 50 to 74% with MDA-MB-231 cells; 75 to 100% with Kato III cells; 25 to 49% with PACA-2 cells.

Turning to `N[C@H](C(=O)N1CCc2c(cnc3[nH]ncc23)C1)c1ccccc1` [(1S)-2-oxo-1-phenyl-2-(3,6,8,9-tetrahydro-7H-pyrazolo[3,4-c][2,7]naphthyridin-7-yl)ethanamine], the inhibition at 10 µM in the data set on DLD-1 cells is < 24%; with MDA-MB-231 cells, 50 to 74%; in the data set with PACA-2 cells, 50 to 74%.

In the case of `Cc1nc(-c2cccc(NC(=O)N3CCc4c(cnc5[nH]ncc45)C3)c2)cs1` [Example 401, N-(3-(2-methylthiazol-4-yl)phenyl)-8,9-dihydro-3H-pyrazolo[3,4-c][2,7]naphthyridine-7(6H)-carboxamide], the melting point was > 155 °C.

For the molecule `Cc1nc(-c2cccc(NC(=O)N3CCc4c(cnc5[nH]nc(Br)c45)C3)c2)cs1` [Example 402, 1-bromo-N-(3-(2-methylthiazol-4-yl)phenyl)-8,9-dihydro-3H-pyrazolo[3,4-c][2,7]naphthyridine-7(6H)-carboxamide], the melting point is 258 to 261 °C.

Regarding `Cc1cncc(Oc2cccc(NC(=O)N3CCc4c(cnc5[nH]nc(Br)c45)C3)c2)n1` [Example 403, 1-bromo-N-{3-[(6-methylpyrazin-2-yl)oxy]phenyl}-3,6,8,9-tetrahydro-7H-pyrazolo[3,4-c][2,7]naphthyridine-7-carboxamide], the melting point was in the range of 221 to 223 °C.

Take `Cc1nc(-c2cccc(NC(=O)N3CCc4c(cnc5[nH]nc(Br)c45)C3)c2)no1` [Example 404, 1-bromo-N-[3-(5-methyl-1,2,4-oxadiazol-3-yl)phenyl]-3,6,8,9-tetrahydro-7H-pyrazolo[3,4-c][2,7]naphthyridine-7-carboxamide]: the melting point was > 152 °C.

`Cc1nc(-c2cccc(NC(=O)N3CCc4c(cnc5[nH]ncc45)C3)c2)no1` [Example 406, N-(3-(5-methyl-1,2,4-oxadiazol-3-yl)phenyl)-8,9-dihydro-3H-pyrazolo[3,4-c][2,7]naphthyridine-7(6H)-carboxamide]: the melting point was > 140 °C.

For `O=C(Nc1ccccc1)N1CCc2c(cnc3[nH]nc(-c4ccccc4)c23)C1` [Example 407, N,1-diphenyl-8,9-dihydro-3H-pyrazolo[3,4-c][2,7]naphthyridine-7(6H)-carboxamide], the melting point lay within 150 to 170 °C.

As to `O=C(Nc1cccc(Cc2ccccc2)c1)N1CCc2c(cnc3[nH]ncc23)C1` [Example 408, N-(3-benzylphenyl)-8,9-dihydro-3H-pyrazolo[3,4-c][2,7]naphthyridine-7(6H)-carboxamide], the melting point is 175 to 178 °C.

`COc1ccc(-c2ccccc2)cc1NC(=O)N1CCc2c(cnc3[nH]ncc23)C1` [Example 409, N-(4-methoxybiphenyl-3-yl)-8,9-dihydro-3H-pyrazolo[3,4-c][2,7]naphthyridine-7(6H)-carboxamide] showed a melting point of 148 to 151 °C.

Turning to `O=C(c1ccccc1)N1CCc2c(cnc3[nH]ncc23)C1` [Example 427, (8,9-dihydro-3H-pyrazolo[3,4-c][2,7]naphthyridin-7(6H)-yl)(phenyl)methanone], the melting point fell in the range of 198 to 200 °C.

On to `O=C(NC1CCc2c(cnc3[nH]ncc23)C1)c1ccccc1` (centres unmarked) [Example 430, N-(6,7,8,9-tetrahydro-3H-pyrazolo[3,4-c]isoquinolin-7-yl)benzamide], for which the melting point is > 300 °C.

Turning to `O=C(c1ccccc1)N1CCc2cnc3[nH]ncc3c2-c2ccccc21` [Example 431, 8-(phenylcarbonyl)-3,6,7,8-tetrahydropyrazolo[4′,3′:5,6]pyrido[3,4-d][1]benzazepine], the melting point is > 150 °C.

Regarding `O=C(O)C(c1ccccc1)N1CCc2c(cnc3[nH]ncc23)C1` (centres unmarked) [Example 433, 2-(8,9-dihydro-3H-pyrazolo[3,4-c][2,7]naphthyridin-7(6H)-yl)-2-phenylacetic acid], the melting point was 237 to 240 °C.

Turning to `COc1ccc(Cn2ncc3c4c(cnc32)CN(c2ncnc3[nH]nc(C(=O)c5ccccc5)c23)CC4)cc1` [Example 434, (4-(3-(4-methoxybenzyl)-8,9-dihydro-3H-pyrazolo[3,4-c][2,7]naphthyridin-7(6H)-yl)-1H-pyrazolo[3,4-d]pyrimidin-3-yl)(phenyl)methanone], the melting point was > 145 °C.

As to `O=C(c1ccccc1)c1c[nH]c2ncnc(N3CCc4c(cnc5[nH]nc(Br)c45)C3)c12` [Example 436], the melting point lay in the range of 300 to 302 °C.

In turn, `COc1ccc(Cn2ncc3c4c(cnc32)CN(C(=N)N)CC4)cc1` [Example 474, 3-(4-methoxybenzyl)-8,9-dihydro-3H-pyrazolo[3,4-c][2,7]naphthyridine-7(6H)-carboximidamide] had a melting point of 255 to 256 °C.

The molecule `O=C(Cc1ccccc1)N1CCc2c(cnc3[nH]ncc23)C1` [Example 476, 1-(8,9-dihydro-3H-pyrazolo[3,4-c][2,7]naphthyridin-7(6H)-yl)-2-phenylethanone] returned a melting point of 164 to 166 °C.

For the molecule `O=C(NC[C@@H]1CCCO1)c1cccc(NC(=O)N2CCc3c(cnc4[nH]ncc34)C2)c1` [N-(3-{[(2S)-tetrahydrofuran-2-ylmethyl]carbamoyl}phenyl)-3,6,8,9-tetrahydro-7H-pyrazolo[3,4-c][2,7]naphthyridine-7-carboxamide], the inhibition at 10 µM with DLD-1 cells, with MDA-MB-231 cells, with Kato III cells and in the data set on PACA-2 cells was 75 to 100% in each case.

For `CC(=O)Nc1cccc(-c2n[nH]c3ncc4c(c23)CCNC4)c1` [N-[3-(6,7,8,9-tetrahydro-3H-pyrazolo[3,4-c][2,7]naphthyridin-1-yl)phenyl]acetamide], the inhibition at 10 µM lay within 50 to 74% in the data set on DLD-1 cells, 25 to 49% in the data set on MDA-MB-231 cells and 75 to 100% with Kato III cells.

Turning to `c1ccc(CNC2CCc3c(cnc4[nH]ncc34)C2)cc1` (centres unmarked) [N-benzyl-6,7,8,9-tetrahydro-3H-pyrazolo[3,4-c]isoquinolin-7-amine], the inhibition at 10 µM in the data set on DLD-1 cells, in the data set with MDA-MB-231 cells and in the data set with PACA-2 cells was < 24% each time.

Turning to `c1ccc(C2Cc3cnc4[nH]ncc4c3-c3ccccc32)cc1` (centres unmarked) [drawing 555, 7-phenyl-6,7-dihydro-3H-benzo[f]pyrazolo[3,4-c]isoquinoline], the inhibition at 10 µM in the data set with DLD-1 cells was 25 to 49%; in the data set on MDA-MB-231 cells, < 24%; in the data set with Kato III cells, 25 to 49%; in the data set on PACA-2 cells, < 24%.

For the molecule `Clc1ccc(C2Cc3cnc4[nH]ncc4c3-c3ccccc32)c(Cl)c1` (centres unmarked) [drawing 557, 7-(2,4-dichlorophenyl)-6,7-dihydro-3H-benzo[f]pyrazolo[3,4-c]isoquinoline], the inhibition at 10 µM was 25 to 49% in the data set with NCI-H1299 cells, 50 to 74% in the data set on DLD-1 cells, 50 to 74% with Kato III cells and < 24% in the data set with PACA-2 cells.

Turning to `O=C(Nc1ccccc1)NC1CCc2c(cnc3[nH]ncc23)C1` (centres unmarked) [drawing 560, 1-phenyl-3-(6,7,8,9-tetrahydro-3H-pyrazolo[3,4-c]isoquinolin-7-yl)urea], the inhibition at 10 µM in the data set with DLD-1 cells and with PACA-2 cells was < 24% in each case.

Regarding `Cc1cc(C)c2c(c1)-c1c(cnc3[nH]ncc13)CC2` [drawing 561, 8,10-dimethyl-6,7-dihydro-3H-benzo[f]pyrazolo[3,4-c]isoquinoline], the inhibition at 10 µM with DLD-1 cells is 75 to 100%; with MDA-MB-231 cells, 25 to 49%; in the data set with Kato III cells it was 25 to 49%; with PACA-2 cells, < 24%.

Consider `COc1ccc2c(c1)-c1c(cnc3[nH]ncc13)CC2` [drawing 562, 10-methoxy-6,7-dihydro-3H-benzo[f]pyrazolo[3,4-c]isoquinoline], for which the inhibition at 10 µM in the data set on DLD-1 cells is < 24%; in the data set with Kato III cells, 25 to 49%; in the data set with PACA-2 cells, < 24%.

Consider `Cc1nc(-c2cccc(NC(=O)N3CCc4c(cnc5[nH]nc(Br)c45)C3)c2)no1` [drawing 581, 1-bromo-N-[3-(5-methyl-1,2,4-oxadiazol-3-yl)phenyl]-3,6,8,9-tetrahydro-7H-pyrazolo[3,4-c][2,7]naphthyridine-7-carboxamide], for which the inhibition at 10 µM with Kato III cells and in the data set with PACA-2 cells was < 24% each time.

For `O=C(Nc1ccccc1)C1CCc2c(cnc3[nH]ncc23)C1` (centres unmarked) [drawing 584, N-phenyl-6,7,8,9-tetrahydro-3H-pyrazolo[3,4-c]isoquinoline-7-carboxamide], the inhibition at 10 µM was 50 to 74% with DLD-1 cells, < 24% with MDA-MB-231 cells, 75 to 100% with Kato III cells and < 24% in the data set on PACA-2 cells.
